Test results taken from US20060111305A1, “Metabolites of certain [1,4]diazepino[6,7,1-ij]quinoline derivatives and methods of preparation and use thereof” (Wyeth, priority 2004, published 2006).
Several values for one entry are separate records, joined by “and”; a condition that tells them apart may be missing. Equal values may be shown once. Read-outs that look alike come from different tables or passages of the source.

Assay: Concentrations of DCDQ and DCDQ carbamoyl glucuronide (M6) in human plasma, LC/SRM (Table 34)
Assay type: in vivo, healthy human subjects
Details: plasma, plasma; for concentration at 6 h / concentration at 12 h / concentration at 24 h: human, oral, read-out: DCDQ concentration in plasma
Procedure: Drug administration and specimen collection were performed in a randomized, double-blinded, placebo-controlled, ascending single dose study of the safety, tolerability, pharmacokinetics, and pharmacodynamics of DCDQ administered orally to healthy subjects and subjects with schizophrenia and schizoaffective disorder. The specimens were stored at approximately −70° C. until analysis for metabolite profiles and for ratios of carbamoyl glucuronide (M6) to DCDQ.
Plasma samples from fasted subjects 25, 28 and 30 in the 50 mg single dose group, fasted subjects 50, 51, 54 in the 200 mg single dose group, fasted subjects 74, 76, 79 in the 300 mg single dose group, fed subjects 83, 84, 86 in the 300 mg single dose group and fasted subjects 92, 94, 96 in the 500 mg single dose group were analyzed for DCDQ carbamoyl glucuronide (M6) concentrations. The internal standard d8-DCDQ (25 μL of 200 ng/mL methanol solution) was added to 100 μL of the plasma samples, followed by the addition of 300 μL of acetonitrile. The samples were mixed and centrifuged at 14000 rpm in an Eppendorf 5415C centrifuge (Brinkman Instruments Inc., Westbury, N.Y.) for 10 minutes. The supernatant of each sample was transferred to a clean tube and evaporated to dryness under a stream of nitrogen in a TurboVap LV evaporator (Caliper Life Sciences, Hopkinton, Mass.). The residue was reconstituted with 50 μL of methanol followed by the addition of 150 μL of water. The sample was mixed and centrifuged as described above. The supernatant was analyzed by LC/MS/MS analysis. Samples for standard curves were prepared with control plasma spiked with synthetic M6. The concentrations of M6 used for the standard curve ranged from 0 to 2500 ng/mL plasma.
LC/MS System 3 was used for semi-quantitative analysis of metabolite M6 (DCDQ carbamoyl glucuronide) in plasma and urine samples. The HPLC equipment for this LC/MS System consisted of a Thermo Surveyor HPLC (Thermo Electron Corp., San Jose, Calif.), including a Surveyor MS pump and autosampler. Separations were accomplished on a 5 micron Phenomenex Luna C18(2) column, 150×2 mm (Phenomenex, Torrance, Calif.). The autosampler and column temperatures were set at 5° C. and 40° C., respectively. The HPLC mobile phase consisted of 10 mM ammonium acetate (A) and methanol (B), and was delivered at 0.2 mL/min. The linear mobile phase gradient (HPLC Gradient 2) is shown below. During LC/MS sample analysis, up to 3 min of the initial flow was diverted away from the mass spectrometer prior to evaluation of metabolites.
The mass spectrometer used for semi-quantitative anslysis with LC/MS System 3 was a Finnigan TSQ Quantum triple quadrupole mass spectrometer (Thermo Electron Corp.). The mass spectrometer was equipped with an electrospray interface and operated in the positive ionization mode. Settings for this mass spectrometer are listed below.
LC/MS/MS analysis in the selected reaction monitoring (SRM) mode (LC/SRM) was conducted for DCDQ and M6 using the following settings.
The computer program Microsoft Excel® 97 was used to calculate means and standard deviations and to perform the student t-test. Xcalibur (version 1.3) and MassLynx software (version 4.0) were used for collection and analysis of LC/MS data. Peak area ratios of M6 to the internal standard were used for quantitation of M6 in plasma samples.

Molecule `c1cc2c3c(c1)[C@H]1CCC[C@H]1CN3CCNC2` [DCDQ, (9aR,12aS)-4,5,6,7,9,9a,10,11,12,12a-decahydro-cyclopenta[c][1,4]diazepine[6,7,1-ij]quinoline, reference compound] has a concentration at 6 h (50 mg, 50 mg (fasted), 6 hr, Mean ± S.D.) of 2.47 ± 2.21 ng/mL, a concentration at 12 h (50 mg, 50 mg (fasted), 12 hr, Mean ± S.D.) of 1.2 ± 1.14 ng/mL and a concentration at 24 h (50 mg, 50 mg (fasted), 24 hr, Mean (standard deviation not calculated)) of 0.4 ng/mL. For the same molecule, the concentration at 6 h (200 mg, 200 mg (fasted), 6 hr, Mean ± S.D.) was 10.9 ± 7.71 ng/mL, the concentration at 12 h (200 mg, 200 mg (fasted), 12 hr, Mean ± S.D.) was 5.6 ± 4.06 ng/mL and the concentration at 24 h (200 mg, 200 mg (fasted), 24 hr, Mean ± S.D.) was 1.5 ± 1.15 ng/mL. For the same molecule, the concentration at 6 h (300 mg, 300 mg (fasted), 6 hr, Mean ± S.D.) was 7.45 ± 7.48 ng/mL, the concentration at 12 h (300 mg, 300 mg (fasted), 12 hr, Mean ± S.D.) was 4.23 ± 3.26 ng/mL and the concentration at 24 h (300 mg, 300 mg (fasted), 24 hr, Mean ± S.D.) was 1.46 ± 0.43 ng/mL. For the same molecule, the concentration at 24 h (300 mg, 300 mg (fasted), 24 hr, individual subjects) was 0.972 ng/mL, the concentration at 6 h (300 mg, 300 mg (fed), 6 hr, Mean ± S.D.) was 12 ± 9.39 ng/mL and the concentration at 12 h (300 mg, 300 mg (fed), 12 hr, Mean ± S.D.) was 8.31 ± 2.47 ng/mL. For the same molecule, the concentration at 12 h (300 mg, 300 mg (fed), 12 hr, individual subjects) was 10.9 ng/mL, the concentration at 24 h (300 mg, 300 mg (fed), 24 hr, Mean ± S.D.) was 2.15 ± 0.86 ng/mL and the concentration at 6 h (500 mg, 500 mg (fasted), 6 hr, Mean ± S.D.) was 32.1 ± 12.2 ng/mL. For the same molecule, the concentration at 12 h (500 mg, 500 mg (fasted), 12 hr, Mean ± S.D.) was 19.4 ± 6.56 ng/mL, the concentration at 24 h (500 mg, 500 mg (fasted), 24 hr, Mean ± S.D.) was 5.45 ± 1.47 ng/mL and the concentration at 24 h (500 mg, 500 mg (fasted), 24 hr, individual subjects) was 5.53 ng/mL. For the same molecule, the “DCDQ concentration in plasma” value (50 mg (fasted), 6 hr, individual subjects) was 0.9 ng/mL and 5.0 ng/mL, the “DCDQ concentration in plasma” value (50 mg (fasted), 12 hr, individual subjects) was 0.7 ng/mL and 0.4 ng/mL and 2.5 ng/mL and the “DCDQ concentration in plasma” value (50 mg (fasted), 24 hr, individual subjects) was 0.2 ng/mL and 0.6 ng/mL. The “DCDQ concentration in plasma” value (200 mg (fasted), 6 hr, individual subjects) was 2.7 ng/mL and 18.0 ng/mL and 12.0 ng/mL, the “DCDQ concentration in plasma” value (200 mg (fasted), 12 hr, individual subjects) was 1.2 ng/mL and 9.2 ng/mL and 6.4 ng/mL and the “DCDQ concentration in plasma” value (200 mg (fasted), 24 hr, individual subjects) was 0.3 ng/mL and 2.6 ng/mL and 1.6 ng/mL. For the same molecule, the “DCDQ concentration in plasma” value (300 mg (fasted), 6 hr, individual subjects) was 2.09 ng/mL and 4.27 ng/mL and 16.0 ng/mL, the “DCDQ concentration in plasma” value (300 mg (fasted), 12 hr, individual subjects) was 1.50 ng/mL and 3.34 ng/mL and 7.84 ng/mL and the “DCDQ concentration in plasma” value (300 mg (fasted), 24 hr, individual subjects) was 1.72 ng/mL and 1.70 ng/mL. The “DCDQ concentration in plasma” value (300 mg (fed), 6 hr, individual subjects) was 19.0 ng/mL and 15.6 ng/mL and 1.30 ng/mL, the “DCDQ concentration in plasma” value (300 mg (fed), 12 hr, individual subjects) was 8.06 ng/mL and 5.97 ng/mL and the “DCDQ concentration in plasma” value (300 mg (fed), 24 hr, individual subjects) was 2.60 ng/mL and 1.15 ng/mL and 2.69 ng/mL. The “DCDQ concentration in plasma” value (500 mg (fasted), 6 hr, individual subjects) was 44.5 ng/mL and 31.7 ng/mL and 20.2 ng/mL, the “DCDQ concentration in plasma” value (500 mg (fasted), 12 hr, individual subjects) was 24.5 ng/mL and 21.7 ng/mL and 12.0 ng/mL and the “DCDQ concentration in plasma” value (500 mg (fasted), 24 hr, individual subjects) was 6.88 ng/mL and 3.95 ng/mL.
